According to article PMC9743148 (Annals of oncology : official journal of the European …, 2020):

System: patients with advanced solid tumors
Assay: Treatment-emergent adverse events
Assay type: in vivo, human
[1] = Combined t.i.w. cohorts (n = 42)

C=CC(=O)N1CC[C@H](n2nc(C#Cc3cc(OC)cc(OC)c3)c3c(N)ncnc32)C1 [futibatinib]
11 (25) n (%): Vomiting TEAE, Any grade (Combined q.d. cohorts (n = 44))
10 (23) n (%): Hyperphosphatemia TEAE, Grade 2 (Combined q.d. cohorts (n = 44))
7 (16) n (%): Fatigue TEAE, Any grade (Combined q.d. cohorts (n = 44)) | Hyperphosphatemia TEAE, grade 3 (Combined q.d. cohorts (n = 44))
30 (68) n (%): Hyperphosphatemia TEAE, Any grade (Combined q.d. cohorts (n = 44))
8 (18) n (%): Nausea TEAE, Grade 1 (Combined q.d. cohorts (n = 44))
13 (30) n (%): Hyperphosphatemia TEAE, Grade 1 (Combined q.d. cohorts (n = 44)) | Nausea TEAE, Any grade (Combined q.d. cohorts (n = 44))
9 (20) n (%): Stomatitis TEAE, Any grade (Combined q.d. cohorts (n = 44))
4 (10) n (%): AST increased TEAE, Any grade [1]
2 (5) n (%): Headache TEAE, Any grade (Combined q.d. cohorts (n = 44)) | Hyponatremia TEAE, Any grade (Combined q.d. cohorts (n = 44)) | Hyponatremia TEAE, Grade 3 (Combined q.d. cohorts (n = 44)) | Nausea TEAE, Grade 3 (Combined q.d. cohorts (n = 44)) | Stomatitis TEAE, Grade 2 (Combined q.d. cohorts (n = 44)) | Treatment discontinuation because of TEAE, Any grade (Combined q.d. cohorts (n = 44)) | Vomiting TEAE, Grade 3 (Combined q.d. cohorts (n = 44))
5 (11) n (%): Pyrexia TEAE, Any grade (Combined q.d. cohorts (n = 44))
3 (7) n (%): Fatigue TEAE, Grade 1 (Combined q.d. cohorts (n = 44)) | Fatigue TEAE, Grade 2 (Combined q.d. cohorts (n = 44)) | Hypomagnesemia TEAE, Any grade (Combined q.d. cohorts (n = 44)) | Hypomagnesemia TEAE, Grade 1 (Combined q.d. cohorts (n = 44)) | Nausea TEAE, Grade 2 (Combined q.d. cohorts (n = 44)) | Pyrexia TEAE, Grade 1 (Combined q.d. cohorts (n = 44)) | Vomiting TEAE, Grade 2 (Combined q.d. cohorts (n = 44)) | ALT increased TEAE, Grade 1 [1]
5 (12) n (%): ALT increased TEAE, Any grade [1]
6 (14) n (%): Dry skin TEAE, Any grade (Combined q.d. cohorts (n = 44)) | Dry skin TEAE, Grade 1 (Combined q.d. cohorts (n = 44)) | Stomatitis TEAE, Grade 1 (Combined q.d. cohorts (n = 44)) | Vomiting TEAE, Grade 1 (Combined q.d. cohorts (n = 44))
1 (2) n (%): Fatigue TEAE, Grade 3 (Combined q.d. cohorts (n = 44)) | Headache TEAE, Grade 2 (Combined q.d. cohorts (n = 44)) | Headache TEAE, Grade 3 (Combined q.d. cohorts (n = 44)) | Onycholysis TEAE, Any grade (Combined q.d. cohorts (n = 44)) | Onycholysis TEAE, Grade 1 (Combined q.d. cohorts (n = 44)) | Pyrexia TEAE, Grade 2 (Combined q.d. cohorts (n = 44)) | Pyrexia TEAE, Grade 3 (Combined q.d. cohorts (n = 44)) | Rash TEAE, Any grade (Combined q.d. cohorts (n = 44)) | Rash TEAE, Grade 1 (Combined q.d. cohorts (n = 44)) | Stomatitis TEAE, Grade 3 (Combined q.d. cohorts (n = 44)) | Treatment discontinuation because of TEAE, Grade 2 (Combined q.d. cohorts (n = 44)) | Treatment discontinuation because of TEAE, Grade 3 (Combined q.d. cohorts (n = 44)) | ALT increased TEAE, Grade 2 [1] | ALT increased TEAE, Grade 3 [1]
0 (0) n (%): Dry mouth TEAE, Grade 3 (Combined q.d. cohorts (n = 44)) | Dry mouth TEAE, Grade 4 (Combined q.d. cohorts (n = 44)) | Dry skin TEAE, Grade 2 (Combined q.d. cohorts (n = 44)) | Dry skin TEAE, Grade 3 (Combined q.d. cohorts (n = 44)) | Dry skin TEAE, Grade 4 (Combined q.d. cohorts (n = 44)) | Fatigue TEAE, Grade 4 (Combined q.d. cohorts (n = 44)) | Headache TEAE, Grade 1 (Combined q.d. cohorts (n = 44)) | Headache TEAE, Grade 4 (Combined q.d. cohorts (n = 44)) | Hypercalcemia TEAE, Any grade (Combined q.d. cohorts (n = 44)) | Hypercalcemia TEAE, Grade 1 (Combined q.d. cohorts (n = 44)) | Hypercalcemia TEAE, Grade 2 (Combined q.d. cohorts (n = 44)) | Hypercalcemia TEAE, Grade 3 (Combined q.d. cohorts (n = 44)) | Hypercalcemia TEAE, Grade 4 (Combined q.d. cohorts (n = 44)) | Hyperphosphatemia TEAE, Grade 4 (Combined q.d. cohorts (n = 44)) | Hypomagnesemia TEAE, Grade 2 (Combined q.d. cohorts (n = 44)) | Hypomagnesemia TEAE, Grade 3 (Combined q.d. cohorts (n = 44)) | Hypomagnesemia TEAE, Grade 4 (Combined q.d. cohorts (n = 44)) | Hyponatremia TEAE, Grade 1 (Combined q.d. cohorts (n = 44)) | Hyponatremia TEAE, Grade 2 (Combined q.d. cohorts (n = 44)) | Hyponatremia TEAE, Grade 4 (Combined q.d. cohorts (n = 44)) | Nausea TEAE, Grade 4 (Combined q.d. cohorts (n = 44)) | Onycholysis TEAE, Grade 2 (Combined q.d. cohorts (n = 44)) | Onycholysis TEAE, Grade 3 (Combined q.d. cohorts (n = 44)) | Onycholysis TEAE, Grade 4 (Combined q.d. cohorts (n = 44)) | Pyrexia TEAE, Grade 4 (Combined q.d. cohorts (n = 44)) | Rash TEAE, Grade 2 (Combined q.d. cohorts (n = 44)) | Rash TEAE, Grade 3 (Combined q.d. cohorts (n = 44)) | Rash TEAE, Grade 4 (Combined q.d. cohorts (n = 44)) | Stomatitis TEAE, Grade 4 (Combined q.d. cohorts (n = 44)) | Treatment discontinuation because of TEAE, Grade 1 (Combined q.d. cohorts (n = 44)) | Treatment discontinuation because of TEAE, Grade 4 (Combined q.d. cohorts (n = 44)) | Urinary tract infection TEAE, Any grade (Combined q.d. cohorts (n = 44)) | Urinary tract infection TEAE, Grade 1 (Combined q.d. cohorts (n = 44)) | Urinary tract infection TEAE, Grade 2 (Combined q.d. cohorts (n = 44)) | Urinary tract infection TEAE, Grade 3 (Combined q.d. cohorts (n = 44)) | Urinary tract infection TEAE, Grade 4 (Combined q.d. cohorts (n = 44)) | Vomiting TEAE, Grade 4 (Combined q.d. cohorts (n = 44)) | ALT increased TEAE, Grade 4 [1]
